US20060089375A1, “Pyrazolo[3,4-b] pyridine compounds, and their use as phosphodiesterase inhibitors” (priority 2002, published 2006)

How the values were obtained:
[1] = molecular target: T1, PDE4B (human recombinant) (Homo sapiens, UniProt Q07343); experiment: Inhibition of PDE4B activity: radioactive SPA or IMAP Fluorescence Polarisation (FP) assay; assay type: biochemical; conditions: PDE4B inhibitory activity, one reading or average of ca. 2-6 readings, read-out: PDE4B pIC50 (± about 0.5) (converted)
T1 construct: made in house
Procedure, shortened: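 SPA: yeast-expressed human recombinant PDE4B was preincubated with compound for 10–30 min at ambient temperature in Tris pH 7.5 with MgCl2, EGTA and BSA, then run 1 h with ~10 nM [3H]cAMP at ≤20% hydrolysis; 10 concentrations (1.5 nM–30 μM) gave pIC50. IMAP FP: Tris pH 7.2 with ~40 nM fluorescein-cAMP, under linear enzyme conditions.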

[2] = system: LPS-induced pulmonary neutrophilia in rats; experiment: In Vivo Assay 1: LPS-induced pulmonary neutrophilia in rats, orally administered PDE4 inhibitors; conditions: Rattus norvegicus, po, aerosolized LPS 30 min after dosing, BAL 4 hours post LPS, read-out: neutrophilia-inhibition ED50
Text: The purpose of this neutrophilia model is to study the potentially anti-inflammatory effects in vivo of orally administered PDE4 inhibitors on neutrophilia induced by inhalation of aerosolized lipopolysaccharide (LPS), modelling the neutrophil inflammatory component(s) of COPD. See the literature section below for scientific background.
Male Lewis rats (Charles River, Raleigh, N.C., USA) weighing approximately 300-400 grams are pretreated with either (a) test compound suspended in 0.5% methylcellulose (obtainable from Sigma-Aldrich, St Louis, Mo., USA) in water or (b) vehicle only, delivered orally in a dose volume of 10 ml/kg. Generally, dose response curves are generated using the following doses of PDE4 inhibitors: 10.0, 2.0, 0.4, 0.08 and 0.016 mg/kg. Thirty minutes following pretreatment, the rats are exposed to aerosolized LPS (Serotype E. Coli 026:B6 prepared by trichloroacetic acid extraction, obtainable from Sigma-Aldrich, St Louis, Mo., USA), generated from a nebulizer containing a 100 μg/ml LPS solution. Rats are exposed to the LPS aerosol at a rate of 4 L/min for 20 minutes. LPS exposure is carried out in a closed chamber with internal dimensions of 45 cm length×24 cm width×20 cm height. The nebulizer and exposure chamber are contained in a certified fume hood. At 4 hours-post LPS exposure the rats are euthanized by overdose with pentobarbital at 90 mg/kg, administered intraperitoneally. Bronchoalveolar lavage (BAL) is preformed through a 14 gauge blunt needle into the exposed trachea. Five, 5 ml washes are performed to collect a total of 25 ml of BAL fluid. […] Percent neutrophil inhibition at each dose (cf. vehicle) is calculated and a variable slope, sigmoidal dose-response curve is generated, usually using Prism Graph-Pad. […]
Alternative method and results: In an alternative embodiment of the procedure, single oral doses of 10 mg/kg or 1.0 mg/kg of the PDE4 inhibitor (or vehicle) is administered to the rats, and percent neutrophil inhibition is calculated and reported for that specific dose.

T1 sequence (Q07343 1-564 isoform Q07343-2): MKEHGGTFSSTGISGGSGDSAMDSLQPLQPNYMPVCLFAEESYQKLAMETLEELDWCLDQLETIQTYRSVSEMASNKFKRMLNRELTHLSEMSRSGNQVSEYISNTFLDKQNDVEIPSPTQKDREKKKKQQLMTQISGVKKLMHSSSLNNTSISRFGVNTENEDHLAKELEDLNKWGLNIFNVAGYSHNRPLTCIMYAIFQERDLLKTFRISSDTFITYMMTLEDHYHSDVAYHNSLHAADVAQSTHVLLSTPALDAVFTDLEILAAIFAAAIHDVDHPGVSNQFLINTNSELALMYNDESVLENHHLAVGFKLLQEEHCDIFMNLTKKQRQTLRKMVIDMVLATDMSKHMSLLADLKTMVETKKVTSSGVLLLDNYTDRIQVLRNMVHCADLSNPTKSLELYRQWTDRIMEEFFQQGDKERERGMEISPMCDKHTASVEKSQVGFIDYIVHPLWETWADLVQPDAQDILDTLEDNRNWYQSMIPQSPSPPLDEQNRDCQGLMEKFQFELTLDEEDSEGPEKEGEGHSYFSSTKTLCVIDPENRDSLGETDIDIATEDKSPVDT

SMILES	IC50 [1] [nM]	ED50 [2] [mg/kg]
CCn1ncc2c(NC3CCOCC3)c(C(=O)Nc3ccc(F)cc3)cnc21 [Example 22, 1-Ethyl-N-(4-fluorophenyl)-4-(tetrahydro-2H-pyran-4-ylamino)-1H-pryazolo[3,4-b]pyridine-5-carboxamide]	12.6	0.5 to 2
CCNC(=O)c1cnc2c(cnn2CC)c1NC1CCOCC1 [Example 83, 1-Ethyl-N-ethyl-4-(tetrahydro-2H-pyran-4-ylamino)-1H-pyrazolo[3,4-b]pyridine-5-carboxamide]	12.6 to 100	0.5 to 2
CCn1ncc2c(NC3CCOCC3)c(C(=O)NCc3ccc(C(F)(F)F)cc3)cnc21 [Example 155, 1-Ethyl-4-(tetrahydro-2H-pyran-4-ylamino)-N-[4-(trifluoromethyl)benzyl]-1H-pyrazolo[3,4-b]pyridine-5-carboxamide]	0.1 to 6.31	0.5 to 2
